Results from US8686113B2 (priority 2009, dated 2014).
Non-standard residues stand in square brackets, D forms with d. Residues, ends and D or L forms follow the SMILES beside them. No end group written: not given here. *: point of attachment. β3hR = N=C(N)NCCC[C@H](N)CC(=O)O; Orn = NCCC[C@H](N)C(=O)O; NHPr = CCCN*

Legend:
[1] = mouse, serum, Half-life in 25% mouse serum, 25% aqueous mouse serum, 37° C., 75 μg/mL peptide
Method: For this, the peptides and peptidomimetics were dissolved in water, mouse serum was added and the peptide concentration was adjusted to 75 μg/mL. While shaking continuously, the mixture was incubated at 37° C. After 0, 30, 60, 120, 240 and 360 minutes, in each case an aliquot was taken and mixed with 15% aqueous trichloroacetic acid (Carl Roth GmbH & Co. KG; Karlsruhe, Germany). After incubation on ice for a further 10 minutes, the precipitated serum proteins were centrifuged off (5 min, 13400 rpm, MiniSpin, Eppendorf AG, Hamburg, Germany). The supernatant was removed, neutralized with 1 mol/L aqueous sodium hydroxide solution (Fluke Chemie GmbH, Buchs, Switzerland) and stored at −20° C. until analysis.
The supernatants were analyzed by RP-HPLC with a linear acetonitrile gradient (Biosolve BV, Valkenswaard, The Netherlands) in the presence of 0.1% trifluoroacetic acid (TFA, UV-grade, Fluka Chemie GmbH, Buchs, Switzerland) as ion-pairing reagent. The fractions were co-crystallized with α-cyanohydroxycinnamic acid (Bruker Daltonik GmbH; Bremen, Germany) as matrix (5.3 mg/mL in 50% acetonitrile in 0.1% aqueous TFA) and were analyzed with a tandem mass spectrometer (MALDI-TOF/TOF-MS, 4700 Proteomics Analyzer; Applied Biosystems GmbH, Weiterstadt, Germany) in the positive-ion reflector mode. The proportion of intact peptides and their degradation products or metabolites could thus be identified and quantified at the individual time points. The control used was 25% aqueous mouse serum, which was analyzed in parallel for the same time intervals.

[2] = test system: E. coli BL21 A1; assay type: cell-based, Escherichia coli; conditions: BL21, 20 h
Summary of the method: (§1)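 Broth microdilution in 1% TSB with twofold peptide series, final 128 μg/mL to 62.5 ng/mL, against 5×10^6 bacteria/mL stock suspension added 1:1. Incubated 20 h at 37 °C, growth read by absorbance at 595 nm; MIC is the lowest concentration with no growth, determined in triplicate.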

[3] = test system: M. luteus 10240; assay: Growth inhibition assay (microdilution MIC); assay type: cell-based, Micrococcus luteus
Summary of the method: as §1

Row | Compound | half-life [1] [h] | MIC E. coli BL21 A1 [2] [µg/mL] | MIC M. luteus 10240 ([3]; 10240, 20 h) [µg/mL] | MIC M. luteus 10240 ([3]; 1% TSB, 20 h at 37° C.) [µg/mL]
1 | CC[C@H](C)[C@H](NC(=O)[C@H](CCCNC(=N)N)NC(=O)[C@H](CCCNC(=N)N)NC(=O)[C@@H]1CCCN1C(=O)[C@@H]1CCCN1C(=O)[C@H](CCCNC(=N)N)NC(=O)[C@@H]1CCCN1C(=O)[C@H](CCCNC(=N)N)NC(=O)[C@@H]1CCCN1C(=O)[C@H](CC(C)C)NC(=O)[C@H](Cc1ccc(O)cc1)NC(=O)[C@@H]1CCCN1C(=O)[C@@H]1CCCN1C(=O)[C@H](CCCCN)NC(=O)[C@H](CC(=O)O)NC(=O)[C@@H](N)C(C)C)C(=O)N[C@@H](Cc1ccc(O)cc1)C(=O)N[C@@H](CC(N)=O)C(=O)N[C@@H](CCCN)C(N)=O [SEQ ID NO. 50, VDKPPYLPRPRPPRRIYNO-NH2] (H-VDKPPYLPRPRPPRRIYN[Orn]-NH2) | 1.5 |  |  | 
2 | CCCNC(=O)[C@H](CCCNC(=N)N)NC(=O)[C@H](CC(N)=O)NC(=O)[C@H](Cc1ccc(O)cc1)NC(=O)[C@@H](NC(=O)[C@H](CCCNC(=N)N)NC(=O)[C@H](CCCNC(=N)N)NC(=O)[C@@H]1CCCN1C(=O)[C@@H]1CCCN1C(=O)[C@H](CCCNC(=N)N)NC(=O)[C@@H]1CCCN1C(=O)[C@H](CCCNC(=N)N)NC(=O)[C@@H]1CCCN1C(=O)[C@H](CC(C)C)NC(=O)[C@H](Cc1ccc(O)cc1)NC(=O)[C@@H]1CCCN1C(=O)[C@@H]1CCCN1C(=O)[C@H](CCCCN)NC(=O)[C@H](CC(=O)O)NC(=O)[C@@H](N)C(C)C)[C@@H](C)CC [SEQ ID NO. 58] (H-VDKPPYLPRPRPPRRIYNR-NHPr) | 2 |  |  | 
3 | CC[C@H](C)[C@H](NC(=O)[C@H](CCCN)NC(=O)[C@H](CCCNC(=N)N)NC(=O)[C@@H]1CCCN1C(=O)[C@@H]1CCCN1C(=O)[C@H](CCCNC(=N)N)NC(=O)[C@@H]1CCCN1C(=O)[C@H](CCCNC(=N)N)NC(=O)[C@@H]1CCCN1C(=O)[C@H](CC(C)C)NC(=O)[C@H](Cc1ccc(O)cc1)NC(=O)[C@@H]1CCCN1C(=O)[C@@H]1CCCN1C(=O)[C@H](CCCCN)NC(=O)[C@H](CC(=O)O)NC(=O)[C@@H](N)C(C)C)C(=O)N[C@@H](Cc1ccc(O)cc1)C(=O)N[C@@H](CC(N)=O)C(=O)N[C@@H](CCCNC(=N)N)C(N)=O [SEQ ID NO. 61, VDKPPYLPRPRPPROIYNR-NH2] (H-VDKPPYLPRPRPPR[Orn]IYNR-NH2) | 2 |  |  | 
4 | CC[C@H](C)[C@H](NC(=O)C[C@H](CCCNC(=N)N)NC(=O)[C@H](CCCNC(=N)N)NC(=O)[C@@H]1CCCN1C(=O)[C@@H]1CCCN1C(=O)[C@H](CCCNC(=N)N)NC(=O)[C@@H]1CCCN1C(=O)[C@H](CCCNC(=N)N)NC(=O)[C@@H]1CCCN1C(=O)[C@H](CC(C)C)NC(=O)[C@H](Cc1ccc(O)cc1)NC(=O)[C@@H]1CCCN1C(=O)[C@@H]1CCCN1C(=O)[C@H](CCCCN)NC(=O)[C@H](CC(=O)O)NC(=O)[C@@H](N)C(C)C)C(=O)N[C@@H](Cc1ccc(O)cc1)C(=O)N[C@@H](CC(N)=O)C(=O)N[C@@H](CCCNC(=N)N)C(N)=O [SEQ ID NO. 62] (H-VDKPPYLPRPRPPR[β3hR]IYNR-NH2) | 2.5 |  |  | 
5 | H-VAKPPYLPRPRPPRRIYNR-NH2 [compound 30] |  | 16 | 4 | 
6 | H-VDAPPYLPRPRPPRRIYNR-NH2 [compound 31] |  | 64 | 32 | 
7 | H-VDKAPYLPRPRPPRRIYNR-NH2 [compound 32] |  | 8 | 8 | 
8 | H-VDKPAYLPRPRPPRRIYNR-NH2 [compound 33] |  | 8 | 8 | 
9 | H-VDKPPALPRPRPPRRIYNR-NH2 [compound 34] |  | 128 | 16 | 
10 | H-VDKPPYAPRPRPPRRIYNR-NH2 [compound 35] |  | 128 | 16 | 
11 | H-VDKPPYIPRPRPPRRIYNR-NH2 [compound 77] |  | 32 | 8 | 
12 | H-VDKPPYLARPRPPRRIYNR-NH2 [compound 36] |  | 32 | 8 | 
13 | H-VDKPPYLPAPRPPRRIYNR-NH2 [compound 37] |  | 32 | 32 | 
14 | H-VDKPPYLPRARPPRRIYNR-NH2 [compound 38] |  | 32 | 8 | 
15 | H-VDKPPYLPRPAPPRRIYNR-NH2 [compound 39] |  | 64 | 16 | 
16 | H-VDKPPYLPRPFPPRRIYNR-OH [compound 13] |  | 64 | 32 | 
17 | H-VDKPPYLPRPHPPRRIYNNR-OH [compound 8] |  | 64 | 32 | 
18 | H-VDKPPYLPRPHPPRRIYNRN-OH [compound 9] |  | 64 | 16 | 
19 | H-VDKPPYLPRPKPPRRIYNR-NH2 [compound 7] |  | 8 | 16 | 
20 | H-VDKPPYLPRPKPPRRIYNRN-OH [compound 6] |  | 32 | 16 | 
21 | H-VDKPPYLPRPNPPRRIYNR-OH [compound 11] |  | 64 | 64 | 
22 | H-VDKPPYLPRPPPPRRIYNNR-OH [compound 2] |  | 128 | 64 | 
23 | H-VDKPPYLPRPQPPRRIYNR-OH [compound 12] |  | 64 | 64 | 
24 | H-VDKPPYLPRPRAPRRIYNR-NH2 [compound 40] |  | 16 | 8 | 

Row | Compound | half-life [1] [h] | MIC E. coli BL21 A1 [2] [µg/mL] | MIC M. luteus 10240 ([3]; 10240, 20 h) [µg/mL] | MIC M. luteus 10240 ([3]; 1% TSB, 20 h at 37° C.) [µg/mL]
25 | H-VDKPPYLPRPRPARRIYNR-NH2 [compound 41] |  | 16 | 8 | 
26 | H-VDKPPYLPRPRPPARIYNR-NH2 [compound 42] |  | 16 | 32 | 
27 | H-VDKPPYLPRPRPPRAIYNR-NH2 [compound 43] |  | 32 | 16 | 
28 | H-VDKPPYLPRPRPPRHIYNH-NH2 [compound 64] |  | 8 | 32 | 
29 | H-VDKPPYLPRPRPPRPIRV-OH [compound 48] |  | 128 | 8 | 
30 | H-VDKPPYLPRPRPPRRAYNR-NH2 [compound 44] |  | 16 | 16 | 
31 | H-VDKPPYLPRPRPPRRIANR-NH2 [compound 45] |  | 8 | 16 | 
32 | H-VDKPPYLPRPRPPRRIYAR-NH2 [compound 46] |  | 8 | 8 | 
33 | H-VDKPPYLPRPRPPRRIYN-NH2 [compound 27] |  | 32 | 64 | 
34 | H-VDKPPYLPRPRPPRRIYNA-NH2 [compound 47] |  | 32 | 16 | 
35 | H-VDKPPYLPRPRPPRRIYPQPRPPHPRL-NH2 [compound 49] |  | 4 | 4 | 
36 | H-VDKPPYLPRPRPPRRIYQR-NH2 [compound 79] |  | 8 | 8 | 
37 | H-VDKPPYLPRPRPPRRLYNR-NH2 [compound 78] |  | 8 | 16 | 
38 | H-VDKPPYLPRPRPRPRIYNR-NH2 [compound 59] |  | 8 | 16 | 
39 | H-VDKPPYLPRPTPPRRIYNNR-OH [compound 4] |  | 128 | 64 | 
40 | H-VDKPPYLPRPYPPRRIYNR-OH [compound 10] |  | 128 | 16 | 
41 | H-VDRPPYLPRPRPPRRIYNR-NH2 [compound 76] |  | 16 | 8 | 
42 | H-VEKPPYLPRPRPPRRIYNR-NH2 [compound 75] |  | 16 | 8 | 
43 | VDKGSYLPRPTPPRPIYNRN-NH2 [compound 91] |  | 16 |  | 128
44 | VDKPPYLPRPRPPRPIYNR-NH2 [SEQ ID NO. 60] | 2 |  |  | 
45 | VDKPPYLPRPRPPRPIYNR-NH2 [compound 60] |  | 8 | 64 | 
46 | VDKPPYLPRPRPPRRIYNNR-OH [SEQ ID NO. 14] | < 0.5 |  |  | 
47 | VDKPPYLPRPRPPRRIYNR-OH [SEQ ID NO. 19] | < 0.5 |  |  | 
